# According to patent US20040076586A1, “Compositions and methods for delivering pharmaceutically active agents using nanoparticulates” (priority 2002, published 2004):
smiles,measurement,setting,value
"CCOC(=O)CCCCCOC(=O)c1c(I)c(NC(C)=O)c(I)c(NC(C)=O)c1I [PH-50, 6-ethoxy-6-oxohexy-3,5-bis(acetylamino)-2,4,6-triiodobenzoate]",half-life in the vascular structures,"at functionally active concentrations, until metabolized by the liver",30 to 60 min
same,route of excretion,in vivo,excreted from the body via the hepatic system rather than the renal system
